According to patent publication US20140171389A1, “METHODS FOR TREATING CANCER” (THRESHOLD PHARMACEUTICALS, INC., priority 2011, published 2014):
Like-named read-outs stand apart in the source and are kept apart here.

How the values were obtained:
[1] = system: H460 cell lines; assay: In vitro cytotoxicity (AlamarBlue) with or without ABT-888, H460; type: cell-based; settings: Homo sapiens
Method: (§1) The effect of the PARP inhibitor, ABT-888, on TH-302 activity was investigated in three human cancer cell lines: human non small cell lung H460, human melanoma A375, and human colorectal carcinoma HCT116.
(§2) Cells were pretreated with ABT-888 for 1 h under normoxia, and then co-incubated with TH-302 for additional 2 h under either normoxia or hypoxia. After 3 days of incubation in the presence of ABT-888, cell viability was determined using AlamarBlue. For the temozolomide (TMZ) group, cells were co-treated with temozolomide and ABT-888 for 3 days after 1 h pretreatment with ABT-888.

[2] = system: HCT116 cell lines; assay: In vitro cytotoxicity (AlamarBlue) with or without ABT-888, HCT116; type: cell-based; settings: Homo sapiens
Method: as §1, §2

[3] = system: A375 cell lines; assay: In vitro cytotoxicity (AlamarBlue) with or without ABT-888, A375; type: cell-based; settings: Homo sapiens
Method: as §1, §2

[4] = system: AA8; assay: Cytotoxicity in AA8 cells (Table 7); type: cell-based, chinese hamster; settings: Cricetulus griseus
From the text: (§3) In contrast, the activity of the monoalkylating agent temozolomide was enhanced by ABT-888 in these cancer cell lines (see, Tables 1, 3, and 5).

[5] = system: EM9 cells; assay: Cytotoxicity in EM9 cells deficient in base excision repair gene XRCC1 (Table 7); type: cell-based; settings: for Fold difference in sensitivity (anoxia) / Fold difference in sensitivity (normoxia): AA8 versus EM9
From the text: as §3

[6] = system: AA8 cells; assay: Cytotoxicity in wild type AA8 cells, 2 h treatment, alamar blue (Table 8); type: cell-based, chinese hamster; settings: for IC50: Cricetulus griseus
Method: (§4) The role of homology-directed DNA repair (HDR) on TH-302 was investigated in wild type and HDR deficient chinese hamster ovary (CHO) cells. […] TH-302 activity can be modulated by pharmacological modulators of both reductases and DNA damage and repair pathways. TH-302 activity can be inhibited by the flavin reductase inhibitor DPI. TH-302 activity was not affected by the PARP inhibitor ABT-888.
(§5) The wild type AA8 cells and the HDR impaired irs1SF and UV41 cells were treated with TH-302 for 2 h, washed, and then incubated for 3 days. At the end of the incubation, viable cells were quantified using alamar blue.

[7] = system: irs1SF cells; assay: Cytotoxicity in HDR impaired irs1SF cells, 2 h treatment, alamar blue (Table 8); type: cell-based, chinese hamster; settings: for IC50: Cricetulus griseus
Method: as §4, §5

[8] = system: UV41 cells; assay: Cytotoxicity in HDR impaired UV41 cells, 2 h treatment, alamar blue (Table 8); type: cell-based, chinese hamster; settings: for IC50: Cricetulus griseus
Method: as §4, §5

[9] = system: multiple human cancer cell lines; assay: Hypoxia-enhanced cytotoxicity in vitro; type: cell-based
From the text: In these examples, pharmacological tools were utilized to test the underlying mechanisms of DNA repair processes involved in the cellular response to TH-302. In vitro cytotoxicity assays were used as the primary read-out.

[10] = Modulation of TH-302 activity by the flavin reductase inhibitor DPI; type: cell-based; settings: with DPI
From the text: as §4

[11] = CHO-AA8, read-out: IC50 (μM) Anoxia AA8
[12] = CHO-AA8, read-out: IC50 (μM) Normoxia AA8
[13] = read-out: IC50 (μM) Normoxia EM9

## Cn1c(COP(=O)(NCCBr)NCCBr)cnc1[N+](=O)[O-] [TH-302]
[1]; NCI-H460, read-out: IC50 (μM) Hypoxia
  IC50: 0.2 µM
[1]; NCI-H460, read-out: IC50 (μM) Normoxia
  IC50: 47 µM
[2]; HCT-116, read-out: IC50 (μM) Hypoxia
  IC50: 0.1 µM
[2]; HCT-116, read-out: IC50 (μM) Normoxia
  IC50: 61 µM
[3]; A-375, read-out: IC50 (μM) Hypoxia
  IC50: 1.5 µM
[3]; A-375, read-out: IC50 (μM) Normoxia
  IC50: 230 µM
[4]; [11]
  IC50: 10 µM
[4]; [12]
  IC50: > 1000 µM
[5]
  Fold difference in sensitivity (anoxia): 1 fold
[5]; normoxia
  Fold difference in sensitivity (normoxia): >1.3 fold
[5]; read-out: IC50 (μM) Anoxia EM9
  IC50: 14 µM
[5]; [13]
  IC50: 760 µM
[6]; CHO-AA8, N2, read-out: IC50 (μM) N2
  IC50: 1.1 µM
[6]; CHO-AA8, air, read-out: IC50 (μM) Air
  IC50: 340 µM
[6]; ratio air/N2
  HCR: 310
[7]; N2, read-out: IC50 (μM) N2
  IC50: 0.5 µM
[7]; air, read-out: IC50 (μM) Air
  IC50: 95 µM
[7]; ratio air/N2
  HCR: 190
[8]; N2, read-out: IC50 (μM) N2
  IC50: 0.02 µM
[8]; air, read-out: IC50 (μM) Air
  IC50: 16 µM
[8]; ratio air/N2
  HCR: 800
[9]
  hypoxia-enhanced cytotoxicity: about 400 fold
[10]
  TH-302 activity in the presence of the flavin reductase inhibitor DPI: inhibited

## Cn1nnc2c(C(N)=O)ncn2c1=O [Temozolomide, temozolomide, reference compound]
[1]; NCI-H460, H460, normoxia, 3 days co-treatment after 1 h ABT-888 pretreatment, read-out: IC50 (μM), Normoxia
  IC50: 540 µM
[2]; HCT-116, HCT116, normoxia, 3 days co-treatment after 1 h ABT-888 pretreatment, read-out: IC50 (μM), Normoxia
  IC50: 890 µM
[3]; A-375, A375, normoxia, 3 days co-treatment after 1 h ABT-888 pretreatment, read-out: IC50 (μM), Normoxia
  IC50: 510 µM
[4]; CHO-AA8, AA8, normoxia, read-out: IC50 (μM) Normoxia AA8
  IC50: > 1000 µM
[5]; normoxia
  Fold difference in sensitivity (normoxia): >5.9 fold
[5]; EM9, normoxia, read-out: IC50 (μM) Normoxia EM9
  IC50: 168 µM

## Nc1n[n+]([O-])c2ccccc2[n+]1[O-] [Tirapazamine, tirapazamine]
[4]; [11]
  IC50: 50 µM
[4]; [12]
  IC50: > 1000 µM
[5]
  Fold difference in sensitivity (anoxia): 3 fold
[5]; read-out: IC50 (μM) Anoxia EM9
  IC50: 15 µM
[5]; [13]
  IC50: > 1000 µM
